A short description of data set [1]: Cytotoxicity against MDCK cells after 48 hrs by MTT assay. The class given is cell-based, Canis lupus familiaris. The conditions noted are these: dog. (In general: Tetrazolium assays rely on reduction of a dye to a coloured formazan, in cell work by metabolically active cells.)
The test system of another data set is H3N2 subtype. As to the kind of experiment: Antiviral activity against amantadine/oseltamivir-susceptible Influenza A virus (A/Aichi/2/68(H3N2)) infected in MDCK cells assessed as inhibition of viral replication after 48 hrs by hemagglutination test. The class given is functional, organism-based. The conditions noted are these: A/Aichi/2/1968(H3N2).
The test system of data set [2] is Influenza A virus. As to the kind of experiment: Antiviral activity against amantadine/oseltamivir-susceptible Influenza A virus (A/mallard/Netherlands/12/00(H7N3)) infected in MDCK cells assessed as inhibition of viral replication after 48 hrs by hemagglutination test. The format is functional, organism-based, Influenza A virus (A/mallard/Netherlands/12/2000(H7N3)).

Data set [3] is described as follows: Selectivity index, ratio of CC50 for MDCK cells to IC50 for amantadine/oseltamivir-susceptible Influenza A virus (A/mallard/Netherlands/12/00(H7N3)). The format is toxicity. The conditions noted are these: dog, read-out: Ratio CC50/IC50.
Data set [4] relates to Influenza A virus. Briefly: Antiviral activity against Influenza A virus (A/Puerto Rico/8/34(H1N1)) infected in MDCK cells assessed as inhibition of viral replication at 500 uM up to 2 hrs post-infection by hemagglutination test. The class given is functional, organism-based. The conditions noted are these: A/Puerto Rico/8/1934(H1N1).
The nature of data set [5]: Selectivity index, ratio of CC50 for MDCK cells to IC50 for amantadine/oseltamivir-susceptible Influenza A virus (A/Singapore/1/57(H2N2)). The format is toxicity. The note with it: dog, read-out: Ratio CC50/IC50.
For data set [6], the system named is Influenza A virus. As to the kind of experiment: Antiviral activity against amantadine/oseltamivir-susceptible Influenza A virus (A/Singapore/1/57(H2N2)) infected in MDCK cells assessed as inhibition of viral replication after 48 hrs by hemagglutination test. The class given is functional, organism-based, Influenza A virus (A/Singapore/1/1957(H2N2)).
The subject of data set [7] is Influenza A virus. As to the kind of experiment: Antiviral activity against amantadine/oseltamivir-susceptible Influenza A virus (A/mallard/Pennsylvania/10218/84(H5N2)) infected in MDCK cells assessed as inhibition of viral replication after 48 hrs by hemagglutination test. The format is functional, organism-based, Influenza A virus (A/mallard/Pennsylvania/10218/1984(H5N2)).

Data set [8] in a line: Selectivity index, ratio of CC50 for MDCK cells to IC50 for amantadine/oseltamivir-susceptible Influenza A virus (A/Aichi/2/68(H3N2)). The format is toxicity. The note with it: dog, read-out: Ratio CC50/IC50.
The nature of data set [9]: Selectivity index, ratio of CC50 for MDCK cells to IC50 for amantadine/oseltamivir-susceptible Influenza A virus (A/mallard/Pennsylvania/10218/84(H5N2)). The class given is toxicity. The conditions noted are these: dog, read-out: Ratio CC50/IC50.

The structures appear in SMILES notation. Calls of active or inactive are those of the source. The rule behind the calls is not given here.

Molecule `C[C@@H]1CC[C@@H]2[C@H](C1)OC1(CCCCC1)C[C@@]2(C)O` showed a cytotoxic concentration (CC50) at 48 h in data set [1] of 627 µM.
On the same count and under the same terms, the value for `C[C@@H]1CC[C@@H]2[C@H](C1)OC1(CCCCCC1)C[C@@]2(C)O` was 210 µM; that for `CCCC1(CCC)C[C@@](C)(O)[C@@H]2CC[C@@H](C)C[C@@H]2O1` was 131 µM.
Same read-out and setting: the value for `C[C@@H]1CC[C@@H]2[C@H](C1)OC1(CCCCCCC1)C[C@@]2(C)O` was 379 µM.
On to `C[C@@H]1CC[C@@H]2[C@@H](C1)OC(C)(C)C[C@@]2(C)O`, for which the IC50 in the data set with H3N2 subtype was greater than 1420 µM; in the data set with Influenza A virus [2], 613 µM; in the data set with Influenza A virus [6] it was 0.9 µM; in the data set on Influenza A virus [7] it was 160 µM. For the same molecule, the selectivity ratio was 2 in data set [3], 1570 in data set [5], 1 in [8] and 9 in [9]. Further, the inhibition entry with Influenza A virus [4] is “Active”. The molecule further gave a CC50 at 48 h in data set [1] greater than 1420 µM.
`CCC[C@H]1C[C@@](C)(O)[C@@H]2CC[C@@H](C)C[C@H]2O1` showed a CC50 at 48 h in data set [1] greater than 1330 µM.
`CCC1(CC)C[C@@](C)(O)[C@@H]2CC[C@@H](C)C[C@@H]2O1` returned a CC50 at 48 h in data set [1] of 188 µM.
In data set [1], `C[C@@H]1CC[C@@H]2[C@H](C1)OC(C)(C)CC2(C)O` (some centres not stated) registered a CC50 at 48 h of 72.2 µM.
Still for that read-out and setting: the value for `CC(N)C12CC3CC(CC(C3)C1)C2` (configuration not stated) [RIMANTADINE] was 319 µM.
Same read-out and setting: the figure for `C[C@@H]1CC[C@@H]2[C@H](C1)OC1(CCCC1)C[C@@]2(C)O` is 810 µM.
Same read-out and setting: the value for `C[C@@H]1CC[C@@H]2[C@@H](C1)O[C@@H](C1CCCCC1)C[C@@]2(C)O` was 24.2 µM; that for `C[C@@H]1CC[C@@H]2[C@@H](C1)OC(C)(C)C[C@]2(C)O` was 816 µM; that for `NC(=O)c1ncn([C@@H]2O[C@H](CO)[C@@H](O)[C@H]2O)n1` [RIBAVIRIN] was greater than 2130 µM.

A word on the CC50: it is the concentration that lowers cell viability or growth by half. A higher CC50 goes with lower toxicity to the cells. As usually defined, the IC50 is the midpoint of a concentration-inhibition curve.

The values above are taken from ChEMBL document CHEMBL4118151, “Highly potent activity of isopulegol-derived substituted octahydro-2H-chromen-4-ols against influenza A and B viruses” (Bioorg Med Chem Lett, 2018).
